From patent publication US5364776A, “Method of hydroxylating 3-[3-(5-ethyl-2-methoxy-6-methylpyridyl)methyl]amino-5-ethyl-6-methyl-2( 1H)-pyridinone with liver slices” (Merck & Co., Inc., priority 1992, dated 1994)

Tests used:
[1] = target: T1, recombinant HIV reverse transcriptase (HIV RTR) (Human immunodeficiency virus type 1 group M subtype B, UniProt P04585); experiment: Reverse transcriptase assay: incorporation of tritiated deoxyguanosine monophosphate into acid-precipitable cDNA by recombinant HIV reverse transcriptase; format: biochemical; details: poly r(C).oligo d(G)12-18 template, [3H]dGTP, pH 8.2 buffer, 37° C., 45 minutes
T1 construct: recombinant HIV reverse transcriptase (HIV RTR)
Protocol: The assay measures the incorporation of tritiated deoxyguanosine monophosphate by recombinant HIV reverse transcriptase (HIV RTR) (or other RT) into acid-precipitable cDNA at the Km values of dGTP and poly r(C).cndot.oligo d(G)12-18.
Thirty uL of a reaction mixture containing equal volumes of: 500 mM Tris.cndot.HCl (pH 8.2), 300 mM MgCl2, 1200 mM KCl, 10 mM DTT, 400 μg/mL poly r(c).cndot.oligo d(G) [prepared by dissolving 1.5 mg (25 U) poly r(C).cndot.oligo d(G) in 1.5 ml sterile distilled H2 O and diluting to 400 μg/ml], 0.1 μCi/μl [^3 H]dGTP, 160 μM dGTP, was added to 10 μl sterile distilled H2 O, and 2.5 μl of potential inhibitor. An aliquot of 10 μL of 5 nM purified HIV RTR was added to initiate the reaction. The mixture was incubated at 37° C. for 45 minutes.
After incubation is complete, the tubes were cooled in ice for 5 minutes. Ice-cold 13% TCA containing 10 mM NaPPi (200 μl) are added and the mixture incubated on ice for 30 minutes. The precipitated cDNA is removed by filtration using presoaked glass filters [TCA, NaPPi ]. The precipitate is then washed with 1N HCl, 10 mM NaPPi.
The filter discs are then counted in a scintillation counter.
Under these conditions [dGTP] and poly r(C).cndot.oligo d(G)12-18 each are approximately equal to the appropriate Km value. Approximately 5-6,000 cpm of [^3 H] GMP are incorporated into acid-precipitable material. The RT reaction is concentration- and time-dependent. […] The calculated IC50 values for the compounds of this invention are as follows: […]

[2] = In vitro metabolism of compound II with rat liver slices; format: in vitro ADME; details: 157.7 μM, four hours, 37° C., pH 7.4, HPLC photodiode array-UV
Protocol: Compound II (157.7 μM) was incubated with rat liver slices (10.17 g wet weight, 250-400 μ thick, ~1.2 cm wide) in 100 ml of Williams' Medium E at pH 7.4 and at 37° C. under an atmosphere of 95% oxygen and 5% carbon dioxide. After four hours the incubation mixture was extracted with ethyl acetate. The extract was evaporated to dryness and the residue reconstituted in methanol. The reconstitute was subjected to preparative HPLC on a reverse-phase column with an on-line UV-diode array detector. Three major metabolites--Ia, Ib and Ic--were isolated for characterization by NMR spectroscopy and mass spectrometry.
The three major products were identified by proton NMR (500 MHz; see Table below) and mass spectrometry as resulting from α-hydroxylation of the ethyl group on the pyridinone (HPLC Peak designating compound Ia), and β- and α-hydroxylation of the ethyl group on the pyridine (designated compounds Ic and Ib, respectively). [drawing 14]

| SMILES | IC50 [1] [nM] | number of major products (metabolites) formed [2] | number of minor products formed [2] |
| --- | --- | --- | --- |
| CCc1cc(NCc2cc(CC)c(C)nc2OC)c(O)nc1C [Compound II, 3-[3-(5-ethyl-2-methoxy-6-methylpyridyl)methyl]amino-5-ethyl-6-methyl-2(1H)-pyridinone] | 29 | three | at least 5 |
| CCc1cc(CNc2cc(C(C)O)c(C)[nH]c2=O)c(OC)nc1C (stereo not drawn) [Ia, 3-[3-(5-ethyl-2-methoxy-6-methylpyridyl)methyl]amino-5-(1-hydroxy)ethyl-6-m ethyl-2(1H )-pyridinone] | 195 | – | – |
| CCc1cc(NCc2cc(C(C)O)c(C)nc2OC)c(=O)[nH]c1C (stereo not drawn) [Ib, 3-[3-(5-(1-hydroxy)ethyl-2-methoxy-6-methylpyridyl)methyl]amino-5-ethyl-6-m ethyl-2(1H)-pyridinone] | 390 | – | – |
| CCc1cc(NCc2cc(CCO)c(C)nc2OC)c(=O)[nH]c1C [Ic, 3-[3-(5-(2-hydroxy)ethyl-2-methoxy-6-methylpyridyl)-methyl]amino-5-ethyl-6-methyl-2(1H)-pyridinone] | 250 | – | – |
